According to publication PMC8072597, “Chromeno[3,4-b]xanthones as First-in-Class AChE and Aβ Aggregation Dual-Inhibitors” (International Journal of Molecular Sciences, 2021):
Like-named read-outs stand apart in the source and are kept apart here.

Key:
[1] = biological target: AChE (Electrophorus electricus—eeAChE) (Electrophorus electricus, UniProt O42275); assay: biochemical; assay type: biochemical
Description: The synthesized compounds were evaluated for their inhibitory activity against AChE (Electrophorus electricus—eeAChE), using an adaptation of Ellman’s method. […] Initially, we performed a screening assay for the synthesized compounds to determine their enzyme inhibition at 20 μΜ as a threshold maximum concentration. […]
The inhibitory activity of the synthesized compounds towards AChE was evaluated spectrophotometrically by a 96-well microplate modified Ellman’s method. The enzyme (AChE) from Electrophorus electricus (eeAChE) stock solution was prepared as 7.4 U/mL in phosphate buffer, at pH 7. The stock solutions for the target compounds (0.1 M) were prepared in DMSO. The assay solution consisted of 0.0005 M 5,5′-dithiobis(2-nitrobenzoic acid) (DTNB), 0.013 U/mL eeAChE, and 0.0025 M acetylthiocholine iodide ATC (substrate for AChE) in 0.1 M phosphate buffer, at pH 7. The reaction mixture was prepared with 100 μL of the enzyme (eeAChE) and 50 μL of the test compound (or DMSO/water, not exceeding 0.2% of DMSO in the wells; i.e., blank samples). After 5 min of the pre-incubation period at 37 °C, 50 μL of acetylthiocholine iodide ATC and 50 μL of 5,5′-dithiobis(2-nitrobenzoic acid) (DTNB) were added to each well, thus initiating the enzymatic reaction. […] All compounds were tested at a screening concentration of 20 μM. The enzyme inhibition was calculated using the […] formula, where S and B are the enzyme activities with and without the test compound, respectively. […] All the reactions were performed in triplicate.

[2] = biological target: T1, HFIP-treated Aβ1-42 peptides (Homo sapiens, UniProt P05067); assay: Aβ aggregation inhibition, thioflavin T (ThT)-based fluorimetric assay; assay type: biochemical; settings: 20 μM compound; for inhibition at 20 µM: read-out: Aβ1-42 Aggregation (% Inhib. at 20 μM)
T1 construct: (HFIP)-treated Aβ1-42 peptides
T1 sequence (P05067 672-713): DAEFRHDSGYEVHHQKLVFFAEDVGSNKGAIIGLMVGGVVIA
Source text: The formation of amyloid aggregates is crucial for the path mechanism of AD. Therefore, we also decided to check the inhibitory activity of the synthesized compounds against the Aβ aggregation. To do so, we conducted a thioflavin T (ThT)-based fluorimetric assay to evaluate their ability to inhibit β-amyloid aggregation in vitro, using 1,1,1,3,3,3,-hexafluoro-2-propanol (HFIP)-treated Aβ1-42 peptides. This assay is based on the interaction between benzothiazole dye (ThT) and cross β-sheet quaternary structure of the amyloid protein. The intensity of fluorescence is weak when the dye is free and increases when the dye binds to β-sheet structures. Cumulative evidence has been shown that aromatic/hydrophobic areas and hydrogen bonding components (such as hydroxy or methoxy groups) along flat extended structures in small-molecule inhibitors as in chromeno[3,4-b]xanthones 4a-i, are important structural features for Aβ aggregation inhibitors. […] The ThT fluorescence data was recorded over 24 h and the obtained results were then plotted against time, as illustrated in Figure 5. Phenol red was used as the reference inhibitor for in vitro Aβ aggregation.
The inhibition of Aβ1-42 aggregation was determined through a ThT-based fluorimetric assay. Initially, the Aβ-peptides (1 mg) were pre-treated with 1,1,1,3,3,3,-hexafluoro-2-propanol (HFIP), kept at room temperature overnight, aliquoted, and dried under vacuum. The Aβ-peptides stock solutions (111 μM) were then prepared in ammonium hydroxide 0.1% (NH4OH) prior to the fluorescence assay. The stock solutions of all tested compounds (400 μM) were prepared in DMSO, while the stock solution of ThT (400 μM) was prepared in distilled water (1 mL). The Aβ aggregation was monitored using a standard 96-well plates, in the Synergy multi-mode reader (BioTek) and setting the excitation and emission wavelengths at 440 and 485 nm, respectively. Samples were prepared by diluting the stock solutions in PBS pH 7.4 to a final Aβ peptides concentration of 10 μM, 20 μM of ThT and 20 μM of the test compound (maximum final DMSO content: 5% v/v), with a final volume of 100 μL. The assays were performed at room temperature. The fluorescence data was recorded over 24 h with 5 s shaking (360 cpm) prior to each reading and then plotted against the time, using a nonlinear regression. Phenol red was used as the reference compound. Each condition was performed in triplicate, and values were averaged. The estimation of the inhibitory potency (%) was carried out by comparing fluorescence values at the plateau.

[3] = Table 1, mean ± SEM, n = 3, each in triplicate, pH 7, 37 °C, read-out: eeAChE [IC50 (μM)]
[4] = Table 2, 10 μM Aβ, fluorescence at plateau over 24 h, <10 = no inhibition observed
[5] = Table 3 (dual-target summary), mean ± SEM, n = 3, read-out: eeAChE (IC50 [μM])

Chain of AChE (Electrophorus electricus—eeAChE) (O42275 24-633): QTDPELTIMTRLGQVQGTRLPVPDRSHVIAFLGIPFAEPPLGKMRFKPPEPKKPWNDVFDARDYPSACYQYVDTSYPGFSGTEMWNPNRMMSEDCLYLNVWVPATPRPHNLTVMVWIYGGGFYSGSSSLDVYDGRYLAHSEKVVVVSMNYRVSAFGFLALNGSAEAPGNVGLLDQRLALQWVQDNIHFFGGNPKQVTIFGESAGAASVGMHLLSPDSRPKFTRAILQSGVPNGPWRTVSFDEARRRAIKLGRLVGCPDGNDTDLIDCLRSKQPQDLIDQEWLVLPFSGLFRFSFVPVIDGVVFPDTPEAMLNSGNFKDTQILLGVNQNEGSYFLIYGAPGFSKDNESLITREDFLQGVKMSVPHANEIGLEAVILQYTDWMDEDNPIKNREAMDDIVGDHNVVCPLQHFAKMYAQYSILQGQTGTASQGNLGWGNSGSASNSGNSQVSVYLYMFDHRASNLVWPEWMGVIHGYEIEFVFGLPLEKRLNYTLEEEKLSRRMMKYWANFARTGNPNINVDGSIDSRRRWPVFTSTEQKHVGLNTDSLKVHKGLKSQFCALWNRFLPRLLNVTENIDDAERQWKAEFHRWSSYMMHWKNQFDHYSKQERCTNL

`C#CCOc1ccc(Br)cc1/C=C/c1cc(=O)c2ccccc2o1` [Compound 3i] showed an IC50 [1, 3] of over 20 µM.

For `C#CCOc1ccccc1/C=C/c1cc(=O)c2ccc(OC)c(OC)c2o1` [Compound 3d, (E)-7,8-dimethoxy-2-[2-(prop-2-yn-1-yloxy)styryl]-4H-chromen-4-one], the inhibition at 20 µM [2, 4] was under 10% and the IC50 [1] was 2.4 ± 0.1 µM.

“2-Methoxy-6H,8H-chromeno[3,4-b]xanthen-8-one [Compound 4e]” was tested, and the “Aβ1-42 Aggregation (% Inhib. at 20 μM)” value [2, 4] was 61%, the “Aβ1-42 Aggregation (% Inhib. at 20 μM)” value ([2]; Table 3 (dual-target summary)) was 61% and the IC50 [1, 3] was 6.9 ± 0.3 µM. For the same compound, the IC50 [1, 5] was 6.9 ± 0.3 µM.

In the case of `COc1cccc2oc3cc4c(cc3c(=O)c12)COc1ccccc1-4` [Compound 4c, 9-Methoxy-6H,8H-chromeno[3,4-b]xanthen-8-one], the IC50 [1, 3] is reported as over 20 µM.

“2,9-Dimethoxy-6H,8H-chromeno[3,4-b]xanthen-8-one [Compound 4g]” was tested, and the IC50 [1, 3] was over 20 µM.

“(E)-7,8-dimethoxy-2-[4-methoxy-2-(prop-2-yn-1-yloxy)styryl]chroman-4-one [Compound 3h]” gave an IC50 [1, 3] of over 20 µM.

`Cc1ccc(C#CCOc2ccccc2/C=C/c2cc(=O)c3ccccc3o2)cc1` [Compound 10, (E)-2-(2-{[3-(4-methylphenyl)prop-2-yn-1-yl]oxy}styryl)-4H-chromen-4-one] gave an inhibition at 20 µM [2, 4] of 66%, an inhibition at 20 µM ([2]; Table 3 (dual-target summary)) of 66 to 70% and an IC50 [1, 5] of 2.9 ± 0.1 µM.

In the case of `C#CCOc1cc(OC)ccc1/C=C/c1cc(=O)c2ccccc2o1` [Compound 3e, (E)-2-[4-methoxy-2-(prop-2-yn-1-yloxy)styryl]-4H-chromen-4-one], the IC50 [1, 3] is reported as over 20 µM.

With `C#CCOc1ccccc1/C=C/c1cc(=O)c2c(OC)cccc2o1` [Compound 3c, (E)-5-methoxy-2-[2-(prop-2-yn-1-yloxy)styryl]-4H-chromen-4-one] the IC50 [1, 3] was over 20 µM.

In the case of `C#CCN(CC#C)c1ccccc1/C=C/c1cc(=O)c2ccccc2o1` [Compound 8, (E)-2-{2-[di(prop-2-yn-1-yl)amino]styryl}-4H-chromen-4-one], the inhibition at 20 µM [2, 4] is reported as 18%, the inhibition at 20 µM ([2]; Table 3 (dual-target summary)) is reported as 18% and the IC50 [1, 5] is reported as 8.7 ± 0.2 µM.

In the case of “2,11-Dimethoxy-6H,8H-chromeno[3,4-b]xanthen-8-one [Compound 4f]”, the “Aβ1-42 Aggregation (% Inhib. at 20 μM)” value [2, 4] is reported as 52%, the “Aβ1-42 Aggregation (% Inhib. at 20 μM)” value ([2]; Table 3 (dual-target summary)) is reported as 52% and the IC50 [1, 3] is reported as 4.8 ± 0.1 µM. For the same compound, the IC50 [1, 5] was 4.8 ± 0.1 µM.

For `C#CCOc1ccccc1/C=C/c1cc(=O)c2ccccc2o1` [Compound 3a, (E)-2-[2-(prop-2-yn-1-yloxy)styryl]-4H-chromen-4-one], the inhibition at 20 µM [2, 4] was under 10% and the IC50 [1] was 9.5 ± 0.3 µM.

Work on “2,11,12-trimethoxy-6H,8H-chromeno[3,4-b]xanthen-8-one [Compound 4h]” yielded an IC50 [1, 3] of over 20 µM.

`C#CCOc1cc(OC)ccc1/C=C/c1cc(=O)c2ccc(OC)cc2o1` [Compound 3f, (E)-7-methoxy-2-[4-methoxy-2-(prop-2-yn-1-yloxy)styryl]-4H-chromen-4-one] was tested, and the inhibition at 20 µM [2, 4] was 48% and the IC50 [1, 3] was over 20 µM.

With “(E)-8-methoxy-3-[4-methoxy-2-(prop-2-yn-1-yloxy]styryl)naphthalen-1(4H)-one [Compound 3g]” the IC50 [1, 3] was over 20 µM.

`C#CCOc1ccccc1/C=C/c1cc(=O)c2ccc(OC)cc2o1` [Compound 3b, (E)-7-methoxy-2-[2-(prop-2-yn-1-yloxy)styryl]-4H-chromen-4-one] showed an inhibition at 20 µM [2, 4] of under 10% and an IC50 [1, 3] of over 20 µM.

Compound `O=S1(=O)OC(c2ccc(O)cc2)(c2ccc(O)cc2)c2ccccc21` [Phenol Red, Phenol red, reference compound] has an inhibition at 20 µM [2, 4] of 20%.

Work on `COc1ccc2c(=O)c3cc4c(cc3oc2c1OC)-c1ccccc1OC4` [Compound 4d, 11,12-Dimethoxy-6H,8H-chromeno[3,4-b]xanthen-8-one] yielded an IC50 [1, 3] of over 20 µM.

`O=c1c2ccccc2oc2cc3c(cc12)COc1ccccc1-3` [Compound 4a, 6H,8H-Chromeno[3,4-b]xanthen-8-one] was tested, and the inhibition at 20 µM [2, 4] was under 10% and the IC50 [1] was 2.1 ± 0.2 µM.

`N#CCOc1ccccc1/C=C/c1cc(=O)c2ccccc2o1` [Compound 6, (E)-2-{2-[2-(4-oxo-4H-chromen-2-yl)vinyl]phenoxy}acetonitrile] was tested, and the IC50 [1, 3] was over 20 µM.

`O=c1c2ccccc2oc2cc3c(cc12)COc1ccc(Br)cc1-3` [Compound 4i, 2-bromo-6H,8H-chromeno[3,4-b]xanthen-8-one] was tested, and the IC50 [1, 3] was over 20 µM.

For `COc1ccc2c(=O)c3cc4c(cc3oc2c1)-c1ccccc1OC4` [Compound 4b], the inhibition at 20 µM [2, 4] was 70%, the inhibition at 20 µM ([2]; Table 3 (dual-target summary)) was 66 to 70% and the IC50 [1, 5] was 3.9 ± 0.1 µM.
